Where a name gives a salt, the structure may show the parent alone.
Molecular target: T1, SIRT1 (Homo sapiens, UniProt Q96EB6)
T1 sequence (Q96EB6 1-747): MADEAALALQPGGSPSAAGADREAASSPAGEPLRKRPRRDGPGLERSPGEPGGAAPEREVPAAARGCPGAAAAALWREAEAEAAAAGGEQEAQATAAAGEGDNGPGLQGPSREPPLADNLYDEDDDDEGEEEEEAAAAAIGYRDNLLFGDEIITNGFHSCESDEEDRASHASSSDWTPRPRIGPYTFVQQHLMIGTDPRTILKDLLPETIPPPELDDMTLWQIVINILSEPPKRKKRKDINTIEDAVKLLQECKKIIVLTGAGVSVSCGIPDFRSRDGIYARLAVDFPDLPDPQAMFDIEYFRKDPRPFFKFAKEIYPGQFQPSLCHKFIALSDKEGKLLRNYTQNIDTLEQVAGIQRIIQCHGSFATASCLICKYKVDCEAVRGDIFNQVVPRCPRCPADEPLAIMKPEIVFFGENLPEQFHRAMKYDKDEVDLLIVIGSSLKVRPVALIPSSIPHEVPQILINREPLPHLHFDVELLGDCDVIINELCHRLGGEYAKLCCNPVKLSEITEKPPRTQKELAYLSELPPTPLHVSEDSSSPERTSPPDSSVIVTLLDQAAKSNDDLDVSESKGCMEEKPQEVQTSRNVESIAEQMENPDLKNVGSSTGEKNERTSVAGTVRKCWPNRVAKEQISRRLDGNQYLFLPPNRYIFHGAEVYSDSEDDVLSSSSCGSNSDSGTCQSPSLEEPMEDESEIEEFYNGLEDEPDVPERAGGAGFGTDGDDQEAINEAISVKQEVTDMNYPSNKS
Experiment: Trp mass spectrometry assay of SIRT1 activity (EC1.5, percent maximum activation)
Format: biochemical
Conditions: Trp mass spectrometry assay; for TRP Activity (EC1.5): EC1.5 = concentration giving 150% activation of SIRT1
Summary of the method: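 Sirtuin deacetylation was run with purified N-His SIRT1 and the 5TMR Trp peptide across a compound titration, stopped after 25 min by acidification, and analysed by MS for OAADPR. Endpoint lay within the linear range.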

[1] = 0.5 μM peptide substrate, 120 μM βNAD+, 10 nM SIRT1, 25 minutes at 25° C.
[2] = percent maximum activation of SIRT1

SMILES | TRP Activity (EC1.5, concentration of test compound that results in 150% activation of SIRT1) [1] | TRP MAX RESP (percent maximum fold activation) [1] | TRP Activity (EC1.5) | TRP MAX RESP (percent maximum fold activation) [2]
O=C(Nc1nccc(OC[C@H](O)CO)n1)N1c2nc(-c3cccc(C(F)(F)F)c3)c(Cl)cc2N2CC[C@H]1C2 [Example 46, (4S)-8-chloro-N-(4-((R)-2,3-dihydroxypropoxy)pyrimidin-2-yl)-7-(3-(trifluoromethyl)phenyl)-3,4-dihydro-1,4-methanopyrido[2,3-b][1,4]diazepine-5(2H)-carboxamide] | – | – | A (EC1.5<1 μM) | A (Fold activation ≧150%)
Cc1cc(-c2ccc3c(n2)N(C(=O)Nc2ccc4c(c2)OCCO4)[C@H]2CCN3C2)ccn1 [Example 121, (4S)-N-(2,3-dihydrobenzo[b][1,4]dioxin-6-yl)-7-(2-methylpyridin-4-yl)-3,4-dihydro-1,4-methanopyrido[2,3-b][1,4]diazepine-5(2H)-carboxamide] | – | – | B (EC1.5 1-25 μM) | A (Fold activation ≧150%)
Cc1cc(-c2nc3c(cc2Br)N2CC[C@@H](C2)N3C(=O)Nc2ccccn2)ccn1 [Example 11, (4S)-8-bromo-7-(2-methylpyridin-4-yl)-N-(pyridin-2-yl)-3,4-dihydro-1,4-methanopyrido[2,3-b][1,4]diazepine-5(2H)-carboxamide] | – | – | B (EC1.5 1-25 μM) | A (Fold activation ≧150%)
Cn1cc(-c2nc3c(cc2Cl)N2CC[C@@H](C2)N3C(=O)Nc2ccnc(OC[C@@H](O)CO)c2)cn1 [Example 105, (4S)-8-chloro-N-(2-((S)-2,3-dihydroxypropoxy)pyridin-4-yl)-7-(1-methyl-1H-pyrazol-4-yl)-3,4-dihydro-1,4-methanopyrido[2,3-b][1,4]diazepine-5(2H)-carboxamide] | – | – | B (EC1.5 1-25 μM) | A (Fold activation ≧150%)
O=C(Nc1cccc(OCCCO)n1)N1c2nc(-c3cccc(C(F)(F)F)c3)c(Cl)cc2N2CC[C@H]1C2 [Example 67, (4S)-8-chloro-N-(6-(3-hydroxypropoxy)pyridin-2-yl)-7-(3-(trifluoromethyl)phenyl)-3,4-dihydro-1,4-methanopyrido[2,3-b][1,4]diazepine-5(2H)-carboxamide] | – | – | A (EC1.5<1 μM) | A (Fold activation ≧150%)
COc1ncc(C(F)(F)F)cc1-c1nc2c(cc1Cl)N1CC[C@@H](C1)N2C(=O)Nc1ccnc(OC[C@@H](O)CO)c1 [Example 103, (4S)-8-chloro-N-(2-((S)-2,3-dihydroxypropoxy)pyridin-4-yl)-7-(2-methoxy-5-(trifluoromethyl)pyridin-3-yl)-3,4-dihydro-1,4-methanopyrido[2,3-b][1,4]diazepine-5(2H)-carboxamide] | – | – | B (EC1.5 1-25 μM) | A (Fold activation ≧150%)
Cc1ccc(-c2cc(C)c3c(n2)N(C(=O)Nc2ccccn2)[C@H]2CCN3C2)cn1 [Example 9, (4S)-9-methyl-7-(6-methylpyridin-3-yl)-N-(pyridin-2-yl)-3,4-dihydro-1,4-methanopyrido[2,3-b][1,4]diazepine-5(2H)-carboxamide] | – | – | B (EC1.5 1-25 μM) | A (Fold activation ≧150%)
Cc1cc(-c2cc(C)c3c(n2)N(C(=O)Nc2cccnc2)[C@H]2CCN3C2)ccn1 [Example 84, (4S)-9-methyl-7-(2-methylpyridin-4-yl)-N-(pyridin-3-yl)-3,4-dihydro-1,4-methanopyrido[2,3-b][1,4]diazepine-5(2H)-carboxamide] | – | – | A (EC1.5<1 μM) | A (Fold activation ≧150%)
Cc1ccc(-c2nc3c(cc2Br)N2CC[C@@H](C2)N3C(=O)Nc2ccccn2)cn1 [Example 2, (4S)-8-bromo-7-(6-methylpyridin-3-yl)-N-(pyridin-2-yl)-3,4-dihydro-1,4-methano pyrido[2,3-b][1,4]diazepine-5(2H)-carboxamide] | – | – | B (EC1.5 1-25 μM) | A (Fold activation ≧150%)

Next, values leading:

TRP Activity (EC1.5, concentration of test compound that results in 150% activation of SIRT1) [1] | TRP MAX RESP (percent maximum fold activation) [1] | TRP Activity (EC1.5) | TRP MAX RESP (percent maximum fold activation) [2] | SMILES
B (EC1.5 1-25 μM) | A (Fold activation ≧150%) | – | – | Cc1cc(-c2ccc3c(n2)N(C(=O)Nc2cnccn2)[C@H]2CCN3C2)cnn1 [Example 212, (4S)-7-(6-methylpyridazin-4-yl)-N-(pyrazin-2-yl)-3,4-dihydro-1,4-methanopyrido[2,3-b][1,4]diazepine-5(2H)-carboxamide]
– | – | B (EC1.5 1-25 μM) | A (Fold activation ≧150%) | Cc1cc(-c2ccc3c(n2)N(C(=O)Nc2nccc4nccnc24)[C@H]2CCN3C2)ccn1 [Example 152, (4S)-7-(2-methylpyridin-4-yl)-N-(pyrido[3,4-b]pyrazin-5-yl)-3,4-dihydro-1,4-methanopyrido[2,3-b][1,4]diazepine-5(2H)-carboxamide]
B (EC1.5 1-25 μM) | A (Fold activation ≧150%) | – | – | Cc1cc(-c2ccc3c(n2)N(C(=O)Nc2cc(-c4cnc(C)o4)ccn2)C2CCN3C2)ccn1 (stereo in doubt) [Example 335, (4S)-N-(4-(2-methyloxazol-5-yl)pyridin-2-yl)-7-(2-methylpyridin-4-yl)-3,4-dihydro-1,4-methanopyrido[2,3-b][1,4]diazepine-5(2H)-carboxamide, Hydrochloride]
B (EC1.5 1-25 μM) | A (Fold activation ≧150%) | – | – | CCn1cc(-c2ccc3c(n2)N(C(=O)Nc2cnccn2)[C@H]2CCN3C2)cn1 [Example 225, (4S)-7-(1-ethyl-1H-pyrazol-4-yl)-N-(pyrazin-2-yl)-3,4-dihydro-1,4-methanopyrido[2,3-b][1,4]diazepine-5(2H)-carboxamide]
– | – | C (EC1.5>25 μM) | B (Fold Activation <150%) | Cc1cc(-c2ccc3c(n2)N(C(=O)N2CCCC2)[C@H]2CCN3C2)ccn1 [Example 173, ((4S)-7-(2-methylpyridin-4-yl)-3,4-dihydro-1,4-methanopyrido[2,3-b][1,4]diazepin-5(2H)-yl)(pyrrolidin-1-yl)methanone]
A (EC1.5<1 μM) | A (Fold activation ≧150%) | – | – | Cc1cc(-c2ccc3c(n2)N(C(=O)Nc2cc(N4C[C@@H](C)O[C@@H](C)C4)ccn2)[C@H]2CCN3C2)ccn1 [Example 357, (4S)-N-(4-((2S,6R)-2,6-dimethylmorpholino)pyridin-2-yl)-7-(2-methylpyridin-4-yl)-3,4-dihydro-1,4-methanopyrido[2,3-b][1,4]diazepine-5(2H)-carboxamide]
– | – | B (EC1.5 1-25 μM) | A (Fold activation ≧150%) | Cc1cc(-c2ccc3c(n2)N(C(=O)NC2CCCC2)[C@H]2CCN3C2)ccn1 [Example 175, (4S)-N-cyclopentyl-7-(2-methylpyridin-4-yl)-3,4-dihydro-1,4-methanopyrido[2,3-b][1,4]diazepine-5(2H)-carboxamide]
– | – | A (EC1.5<1 μM) | A (Fold activation ≧150%) | CCc1cc(-c2ccc3c(n2)N(C(=O)Nc2cnccn2)[C@H]2CCN3C2)ccn1 [Example 139, (4S)-7-(2-ethylpyridin-4-yl)-N-(pyrazin-2-yl)-3,4-dihydro-1,4-methanopyrido[2,3-b][1,4]diazepine-5(2H)-carboxamide]

Reference: patent US20170355705A1 (GlaxoSmithKline Intellectual Property (No.2) Limited, priority 2014, published 2017)
